Data: patent US11236122B2, “Triterpene amine derivatives” (DFH THERAPEUTICS, priority 2018, dated 2022)
Where a name gives a salt, the structure may show the parent alone.

Key:
[1] = system: pNL4-3 SP1-V7A in MT-4 cells; assay: Antiviral assay in MT-4 cells (RT readout), SP1-V7A; type: cell-based, HIV-1; conditions: Human immunodeficiency virus 1, MT4, 96 h, read-out: Antiviral Assay IC50 (nM) SP1 V7A
Procedure: (§1) Cell culture, plasmids and transfections. The MT-4 T-cell line was maintained in RPMI-1640 medium supplemented with 10% (vol/vol) fetal bovine serum (FBS), 2 mM glutamine, 100 U/mL penicillin and 100 μg/mL streptomycin at 37° C. in a humidified 5% CO2 atmosphere. HeLa and 293T cells were maintained in Dulbecco's modified Eagle's medium (DMEM) supplemented with 5% (vol/vol) FBS, 2 mM glutamine, 100 U/mL penicillin and 100 μg/mL streptomycin. Molecular clones used in this study were WT pNL4-3 and the derivative encoding a Val-to-Ala mutation at SP1 residue 7, referred to as SP1-V7A. The MT-4 T-cell line was transfected the DEAE/dextran procedure; HeLa and 293T cells were transfected with linear polyethylenimine (L-PEI) or Lipofectamine 2000 (Invitrogen) as recommended by the supplier.
(§2) Antiviral assays. To produce HIV-1 stocks, 293T cells were transfected with WT pNL4-3 or the SP1-V7A derivative and culture supernatants were collected 24 h post transfection. RT-normalized virus supernatants were used to infect MT-4 cells at room temperature for 30 min. Cells were then cultured in the presence of serial dilutions of compounds. […] The IC50s in primary peripheral blood mononuclear cells (PBMCs) were calculated with a multi-clade panel of HIV-1 isolates by Southern Research Institute (Frederick, Md.). […]

[2] = system: WT pNL4-3; assay: CA-SP1 accumulation assay, WT NL4-3; type: cell-based, HIV-1; conditions: 100 nM compound, HeLa or 293T cells
Method in brief: (§3)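 HeLa or 293T cells transfected with proviral clone, maturation inhibitors present through transfection and labeling; at 24 h, [^35S]Met/Cys labeling 2-3 h. Virions pelleted by ultracentrifugation, lysed, CA and CA-SP1 resolved by SDS-PAGE and quantified by phosphorimaging.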

[3] = system: pNL4-3 SP1-V7A; assay: CA-SP1 accumulation assay, SP1-V7A derivative; type: cell-based, HIV-1; conditions: 100 nM compound, HeLa or 293T cells
Method in brief: as §3

[4] = Cytotoxicity assay CellTiter-Blue, MT-4; type: cell-based; conditions: human; MT-4 cells, 4 to 8 days; mean ± SEM, three experiments
Procedure: (§4) Cytotoxicity assays. Cytotoxicity was measured with CellTiter-Blue® Cell Viability Assay according to the manufacturer's protocol (Promega). Two cell lines, MT-4 and HeLa, were used in this assay. Cells were incubated with serial dilution of compounds at 37° C. for 4 to 8 days and subjected to CellTiter-Blue Reagent. The fluorescent signal was measured at 560 nm Ex/590 nm Em by a plate reader (TECAN, Infinite® M1000 PRO). The 50% cytotoxic concentrations (CC50s) were defined as compound concentrations at which the fluorescent signals were reduced by 50%/relative to the no-inhibitor (DMSO only) controls using GraphPad Prism 6 software and are reported in Table 1.

[5] = Cytotoxicity assay CellTiter-Blue, HeLa; type: cell-based; conditions: human; HeLa cells, 4 to 8 days; mean ± SEM, three experiments
Procedure: as §4

[6] = system: WT pNL4-3 in MT-4 cells; assay: Antiviral assay in MT-4 cells (RT readout), WT NL4-3; type: cell-based, HIV-1; conditions: Human immunodeficiency virus 1, NL43, MT4, 96 h, read-out: Antiviral Assay IC50 (nM) NL4-3
Procedure: as §1, §2

In the case of C=C(C)[C@@H]1CC[C@]2(CCNC3CCN(CCOC)CC3)CC[C@]3(C)[C@H](CC[C@@H]4[C@@]5(C)CC[C@H](OC(=O)CC(C)(C)CC(=O)O)C(C)(C)[C@@H]5CC[C@]43C)[C@@H]12 [Compound 51g, (3β)-17-[2-[[1-(2-Methoxyethyl)piperadin-4-yl]amino]ethyl]-28-norlup-20(29)-en-3-ol, 3-(5-Hydrogen 3,3-Dimethylpentanedioate), Bis(trifluoroacetate) Salt], the IC50 [1] is reported as 19 ± 6 nM, the “% CA-SP1 Accumulation 100 nM NL4-3” value [2] is reported as 85.0 (2) % and the “% CA-SP1 Accumulation 100 nM SP1 V7A” value [3] is reported as 46.5 (3) %. It also gave a CC50 [4] of 406 ± 48 nM, a CC50 [5] of 551 ± 83 nM and an IC50 [6] of 2 ± 0.5 nM.
